This is an account of results in US20020001841A1, “CONTINUOUS T-CELL LINES” (priority 1998, published 2002).

Several values for one entry are separate records, joined by “and”; a condition that tells them apart may be missing. Equal entries are not always repeated.

Experiment [1] has as its system activated gut T-lymphocytes in Crohn's disease. It counts as cell-based, human.
Experiment [2] has as its system gut T-cell cultures from patients with Crohn's disease. Type of experiment: cell-based, human.
The test system is the same in experiment [3]. It counts as cell-based, human. The source holds these as a separate data set.
The next experiment relates to transmembrane TNFα. The conditions noted are these: murine SP2/O myeloma cells with cleavage resistant transmembrane TNFα; Scatchard analyses; cited from earlier work.
Sequence of transmembrane TNFα (P01375 88-233 limits assumed): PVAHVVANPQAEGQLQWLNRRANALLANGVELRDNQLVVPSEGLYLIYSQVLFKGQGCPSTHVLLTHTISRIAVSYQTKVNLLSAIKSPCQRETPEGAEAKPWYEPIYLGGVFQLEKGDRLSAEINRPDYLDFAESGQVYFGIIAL

On to “Infliximab: chimeric TNFα antibody with high avidity for transmembrane TNFα, obtained from Centocor”, for which, in experiment [1], the “24 hour production of IFNγ (in words)” value is “reduction”; the “Production of IFNγ and TNFα (in words)” value is on record as “reduced”; the “Reduction of IFNγ production by Infliximab” value was 68% and 43% and 49% and 56%; the “Reduction of TNFα production by Infliximab” value came out at 97%. In experiment [2], the “Amount of propidium iodide and Annexin-FITC positive cells compared with SEA alone” value is listed as “did not increase”; the “Apoptosis (in words)” value was “did not induce any apoptosis”. Further, in experiment [3], the “Proliferation rate (in words)” value was “did not change the proliferation rate”. Besides, in the experiment with transmembrane TNFα, the “Infliximab molecules bound per cell” value is recorded as “about 35000 molecules per cell”.
